ChEMBL document CHEMBL5506038, “Discovery of LC-MI-3: A Potent and Orally Bioavailable Degrader of Interleukin-1 Receptor-Associated Kinase 4 for the Treatment of Inflammatory Diseases” (J Med Chem, 2024)
Activity calls are given as the source filed them. No cut-off for these calls is given here.

Assays:
[1] = system: RAW264.7; assay: Protection against Escherichia coli-induced sepsis in mouse RAW264.7 cells assessed as reduction in IL-6 level at 1 uM pretreated with compound for 6 hrs followed by Escherichia coli-induction and measured after 6 hrs by RT-PCR analysis; assay type: functional, cell-based; settings: time 12.0 hrs
[2] = system: RAW264.7; assay: Protection against Escherichia coli-induced sepsis in mouse RAW264.7 cells assessed as reduction in TNF-alpha production at 1 uM pretreated with compound for 6 hrs followed by Escherichia coli-induction and measured after 6 hrs by ELISA analysis; assay type: functional, cell-based; settings: time 12.0 hrs
[3] = target: T1, Protein cereblon/Interleukin-1 receptor-associated kinase 4 (Mus musculus) (UniProt Q8C7D2+Q8R4K2); assay: PROTAC activity at IRAK4/CRBN in mouse RAW264.7 cells assessed as reduction in IRAK4 level at 100 nM incubated for 12 hrs by Western blot analysis relative to control; assay type: cell-based
[4] = system: Mus musculus; assay: Anti-inflammatory activity in imiquimod-induced C57BL/6 mouse psoriasis model assessed as […] in skin thickness at 20 mg/kg, po administered twice daily measured on day 7 by H and E staining based analysis; assay type: functional, organism-based; settings: time 7.0 day
[5] = Oral bioavailability in Sprague-Dawley rat at 20 mg/kg by LC-MS/MS analysis; assay type: ADME, organism-based; settings: in vivo
[6] = Toxicity in C57BL/6 mouse assessed as effect on body weight at 20 mg/kg, po measured for 6 days; assay type: organism-based; settings: in vivo, 144 h, time 6 day
[7] = system: RAW264.7; assay: Activation of NF-kappaB pathway in LPS-induced mouse RAW264.7 cells expressing EGFP at 5 uM pretreated with compound for 1 hr followed by LPS-induction and measured at 15 min by flow cytometry analysis; assay type: cell-based; settings: filed as activator, time 75.0 min
[8] = Cmax in Sprague-Dawley rat at 20 mg/kg, po by LC-MS/MS analysis; assay type: ADME, organism-based; settings: in vivo
[9] = system: Mus musculus; assay: Anti-inflammatory activity against LPS-induced acute […] injury C57BL/6 mouse model assessed as reduction in IL-6 level in lung at 20 mg/kg, IG pretreated with compound for 12 hrs followed by LPS-induction and measured after 6 hrs by RT-PCR analysis; assay type: functional, organism-based; settings: time 18.0 hrs
[10] = system: RAW264.7; assay: Effect on TNFalpha mRNA expression in LPS-induced mouse RAW264.7 cells at 1 uM pretreated with compound for 1 hr followed by LPS-induction and measured after 6 hrs by RT-PCR analysis; assay type: functional, cell-based; settings: time 7.0 hrs
[11] = target: DNA-binding protein Ikaros (Homo sapiens) (UniProt Q13422); assay: Induction of IKZF1 degradation in human THP-1 cells upto 10000 nM incubated for 12 hrs by Western blotting analysis; assay type: cell-based
[12] = target: T2, Interleukin-1 receptor-associated kinase 4 (Homo sapiens) (UniProt Q9NWZ3); assay: Inhibition of IRAK4 in human BMDM cells assessed as decrease in TLR4 endocytosis by flow cytometry analysis; assay type: cell-based
T2 sequence (whole entry): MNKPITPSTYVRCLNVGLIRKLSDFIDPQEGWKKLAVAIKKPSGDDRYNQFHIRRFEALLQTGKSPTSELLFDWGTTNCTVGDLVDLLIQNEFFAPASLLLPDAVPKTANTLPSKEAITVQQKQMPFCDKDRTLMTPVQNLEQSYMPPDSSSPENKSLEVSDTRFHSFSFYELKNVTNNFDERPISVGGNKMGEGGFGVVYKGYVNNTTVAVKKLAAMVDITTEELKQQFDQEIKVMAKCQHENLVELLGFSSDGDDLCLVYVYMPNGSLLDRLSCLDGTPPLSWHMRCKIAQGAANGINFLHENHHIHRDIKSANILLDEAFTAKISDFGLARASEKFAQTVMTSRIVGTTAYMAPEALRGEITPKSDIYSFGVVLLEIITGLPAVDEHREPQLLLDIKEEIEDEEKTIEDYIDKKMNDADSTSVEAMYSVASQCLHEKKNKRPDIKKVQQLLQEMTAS

[13] = Half life in Sprague-Dawley rat at 2 mg/kg, iv by LC-MS/MS analysis; assay type: ADME, organism-based; settings: in vivo
[14] = target: Protein cereblon/Interleukin-1 receptor-associated kinase 4 (Mus musculus, UniProt Q8C7D2+Q8R4K2); assay: PROTAC activity at IRAK4/CRBN in mouse RAW264.7 cells assessed as reduction in IRAK4 level incubated for 12 hrs by Western blot analysis; assay type: cell-based
[15] = target: T3, Interleukin-1 receptor-associated kinase 4 (Homo sapiens, UniProt Q9NWZ3); assay: Inhibition of IRAK4 (unknown origin)
T3 sequence (Q9NWZ3 whole entry): T2 sequence (whole entry)

[16] = target: Sal-like protein 4 (Homo sapiens) (UniProt Q9UJQ4); assay: Induction of SALL4 degradation in human THP-1 cells upto 10000 nM incubated for 12 hrs by Western blotting analysis; assay type: cell-based
[17] = system: Mus musculus; assay: Anti-inflammatory activity in imiquimod-induced C57BL/6 mouse psoriasis model assessed as reduction in epidermal acanthosis at 20 mg/kg, po administered twice daily measured for 6 days by H and E staining based analysis; assay type: functional, organism-based; settings: time 6.0 day
[18] = target: Zinc finger protein Aiolos (Homo sapiens) (UniProt Q9UKT9); assay: Induction of IKZF3 degradation in human THP-1 cells upto 10000 nM incubated for 12 hrs by Western blotting analysis; assay type: cell-based
[19] = Cmax in Sprague-Dawley rat at 2 mg/kg, iv by LC-MS/MS analysis; assay type: ADME, organism-based; settings: in vivo
[20] = system: RAW264.7; assay: Activation of NF-kappaB pathway in LPS-induced mouse RAW264.7 cells expressing EGFP at 5 uM pretreated with compound for 1 hr followed by LPS-induction and measured after 6 hrs by flow cytometry analysis; assay type: cell-based; settings: filed as activator, time 7.0 hrs
[21] = system: Mus musculus; assay: Anti-inflammatory activity in imiquimod-induced C57BL/6 mouse psoriasis model assessed as reduction in dermal inflammatory cell infiltration at 20 mg/kg, po administered twice daily measured for 6 days by H and E staining based analysis; assay type: functional, organism-based; settings: time 6.0 day
[22] = system: Mus musculus; assay: Anti-inflammatory activity in imiquimod-induced C57BL/6 mouse psoriasis model assessed as improvement in scaling at 20 mg/kg, po administered twice daily measured for 6 days; assay type: functional, organism-based; settings: time 6.0 day
[23] = system: Mus musculus; assay: Anti-inflammatory activity against LPS-induced acute […] injury C57BL/6 mouse model assessed as reduction in TNF-alpha level in lung at 20 mg/kg, IG pretreated with compound for 12 hrs followed by LPS-induction and measured after 6 hrs by RT-PCR analysis; assay type: functional, organism-based; settings: time 18.0 hrs
[24] = target: T1, Protein cereblon/Interleukin-1 receptor-associated kinase 4 (Mus musculus); assay: PROTAC activity at IRAK4/CRBN in mouse RAW264.7 cells assessed as induction of IRAK4 degradation at 100 nM incubated for 12 hrs in presence of MG132 by Western blot analysis; assay type: cell-based
[25] = Toxicity in C57BL/6 mouse assessed as lung damage at 20 mg/kg, IG by H and E staining based analysis; assay type: organism-based; settings: in vivo, po
[26] = target: T1, Protein cereblon/Interleukin-1 receptor-associated kinase 4 (Mus musculus); assay: PROTAC activity at IRAK4/CRBN in mouse RAW264.7 cells assessed as induction of IRAK4 degradation at 25 to 2500 nM incubated for 12 hrs by Western blot analysis; assay type: cell-based; settings: dose 25-2500 nM
[27] = target: MAP kinase p38 (Mus musculus) (UniProt P47811+O08911+Q9WUI1+Q9Z1B7); assay: Inhibition of MAPK phosphorylation in LPS-induced mouse RAW264.7 cells at 1 uM pretreated with compound for 1 hr followed by LPS-induction and measured after 2 hrs by Western blot analysis; assay type: cell-based; settings: time 3.0 hrs

T1 sequence (Q8C7D2 whole entry, looked up): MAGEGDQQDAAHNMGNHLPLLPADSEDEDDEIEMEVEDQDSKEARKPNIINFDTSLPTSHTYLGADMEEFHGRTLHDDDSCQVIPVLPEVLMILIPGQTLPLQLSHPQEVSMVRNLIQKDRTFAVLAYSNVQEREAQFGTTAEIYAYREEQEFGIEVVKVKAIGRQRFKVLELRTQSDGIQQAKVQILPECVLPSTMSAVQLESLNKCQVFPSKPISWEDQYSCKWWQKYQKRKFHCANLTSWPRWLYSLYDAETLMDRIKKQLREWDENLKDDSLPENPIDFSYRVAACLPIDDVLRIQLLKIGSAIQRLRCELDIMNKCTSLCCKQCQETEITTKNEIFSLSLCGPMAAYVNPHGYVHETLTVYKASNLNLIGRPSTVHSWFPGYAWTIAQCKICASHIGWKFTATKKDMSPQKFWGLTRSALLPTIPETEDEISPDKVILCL
T1 sequence (Q8R4K2 whole entry, looked up): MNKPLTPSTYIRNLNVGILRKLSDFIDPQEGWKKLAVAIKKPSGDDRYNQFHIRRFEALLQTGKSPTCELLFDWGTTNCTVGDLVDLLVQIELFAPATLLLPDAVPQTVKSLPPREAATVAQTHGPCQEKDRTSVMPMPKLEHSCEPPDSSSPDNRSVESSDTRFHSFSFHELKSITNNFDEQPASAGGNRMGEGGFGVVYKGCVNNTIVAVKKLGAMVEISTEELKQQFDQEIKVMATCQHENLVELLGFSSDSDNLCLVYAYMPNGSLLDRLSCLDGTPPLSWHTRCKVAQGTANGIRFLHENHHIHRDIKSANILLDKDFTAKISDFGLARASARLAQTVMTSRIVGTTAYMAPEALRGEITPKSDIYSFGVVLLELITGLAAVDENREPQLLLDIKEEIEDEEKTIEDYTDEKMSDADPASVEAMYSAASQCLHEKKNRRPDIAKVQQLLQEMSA
Chain of Sal-like protein 4 (Homo sapiens) (Q9UJQ4 whole entry): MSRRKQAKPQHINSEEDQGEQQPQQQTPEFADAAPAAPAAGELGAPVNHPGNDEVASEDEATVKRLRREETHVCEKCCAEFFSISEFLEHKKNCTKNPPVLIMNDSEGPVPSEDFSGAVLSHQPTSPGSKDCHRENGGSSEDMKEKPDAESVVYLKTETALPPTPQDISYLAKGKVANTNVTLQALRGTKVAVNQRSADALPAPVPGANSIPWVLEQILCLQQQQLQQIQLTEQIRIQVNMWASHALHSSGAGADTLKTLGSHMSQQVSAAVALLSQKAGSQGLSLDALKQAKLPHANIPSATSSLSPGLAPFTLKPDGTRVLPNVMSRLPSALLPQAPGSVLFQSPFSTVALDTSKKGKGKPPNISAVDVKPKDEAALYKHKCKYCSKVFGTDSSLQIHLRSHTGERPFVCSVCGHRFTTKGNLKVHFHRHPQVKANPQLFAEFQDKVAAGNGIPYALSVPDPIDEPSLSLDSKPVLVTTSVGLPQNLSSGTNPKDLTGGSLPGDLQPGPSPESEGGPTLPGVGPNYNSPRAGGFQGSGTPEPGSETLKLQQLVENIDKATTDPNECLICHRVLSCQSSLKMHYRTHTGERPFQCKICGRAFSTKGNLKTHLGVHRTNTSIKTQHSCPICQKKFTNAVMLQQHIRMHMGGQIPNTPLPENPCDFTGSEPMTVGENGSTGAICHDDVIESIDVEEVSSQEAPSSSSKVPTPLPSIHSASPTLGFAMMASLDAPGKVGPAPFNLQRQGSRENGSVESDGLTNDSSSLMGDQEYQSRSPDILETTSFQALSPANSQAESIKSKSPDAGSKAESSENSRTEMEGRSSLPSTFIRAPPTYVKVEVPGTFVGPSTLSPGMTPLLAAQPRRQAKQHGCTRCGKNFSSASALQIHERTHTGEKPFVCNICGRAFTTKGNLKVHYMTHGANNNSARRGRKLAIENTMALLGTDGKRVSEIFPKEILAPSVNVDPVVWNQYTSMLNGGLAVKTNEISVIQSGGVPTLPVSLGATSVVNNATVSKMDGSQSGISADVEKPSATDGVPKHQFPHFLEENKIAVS
Chain of DNA-binding protein Ikaros (Homo sapiens) (Q13422 whole entry): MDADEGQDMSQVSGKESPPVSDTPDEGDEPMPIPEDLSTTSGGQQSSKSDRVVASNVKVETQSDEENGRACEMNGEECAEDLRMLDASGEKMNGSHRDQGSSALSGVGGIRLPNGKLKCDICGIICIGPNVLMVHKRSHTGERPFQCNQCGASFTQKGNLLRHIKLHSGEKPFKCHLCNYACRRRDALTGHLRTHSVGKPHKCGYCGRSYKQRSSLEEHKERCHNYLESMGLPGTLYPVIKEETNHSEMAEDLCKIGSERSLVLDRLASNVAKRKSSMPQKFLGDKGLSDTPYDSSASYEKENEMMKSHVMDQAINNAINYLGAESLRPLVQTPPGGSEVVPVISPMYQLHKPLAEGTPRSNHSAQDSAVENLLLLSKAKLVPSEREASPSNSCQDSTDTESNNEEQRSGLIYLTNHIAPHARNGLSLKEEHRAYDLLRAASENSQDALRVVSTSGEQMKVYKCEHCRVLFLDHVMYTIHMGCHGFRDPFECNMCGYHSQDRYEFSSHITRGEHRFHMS
Chain of Protein cereblon/Interleukin-1 receptor-associated kinase 4 (Q8C7D2 whole entry): as the sequence (Q8C7D2 whole entry, looked up) above
Chain of Protein cereblon/Interleukin-1 receptor-associated kinase 4 (Q8R4K2 whole entry): as the sequence (Q8R4K2 whole entry, looked up) above
Chain of Zinc finger protein Aiolos (Homo sapiens) (Q9UKT9 whole entry): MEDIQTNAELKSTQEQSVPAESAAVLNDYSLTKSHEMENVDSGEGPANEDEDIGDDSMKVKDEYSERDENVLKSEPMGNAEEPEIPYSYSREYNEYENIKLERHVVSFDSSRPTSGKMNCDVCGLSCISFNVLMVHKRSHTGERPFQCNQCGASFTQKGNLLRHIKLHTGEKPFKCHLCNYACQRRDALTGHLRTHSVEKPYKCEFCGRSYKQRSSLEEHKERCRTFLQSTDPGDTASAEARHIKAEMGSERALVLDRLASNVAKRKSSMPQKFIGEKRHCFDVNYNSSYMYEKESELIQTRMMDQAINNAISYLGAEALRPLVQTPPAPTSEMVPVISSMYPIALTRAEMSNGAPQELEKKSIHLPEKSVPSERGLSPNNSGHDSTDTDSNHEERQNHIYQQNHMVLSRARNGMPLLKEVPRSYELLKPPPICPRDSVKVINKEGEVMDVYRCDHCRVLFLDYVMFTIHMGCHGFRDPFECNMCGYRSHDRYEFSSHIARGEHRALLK

Compound: COc1cc(N2CCN(C(=O)CCOCC#Cc3ccc4c(c3)C(=O)N(C3CCC(=O)NC3=O)C4=O)CC2)ccc1NC(=O)c1cccc(-c2ccn[nH]2)n1 (configuration not stated)
- Activity [1]: Active
- Activity [2]: Active
- Emax [3]: 85%
- Activity [4]: Active
- bioavailability [5]: 8.15%
- Activity [6]: Non-Toxic
- Activity [7]: Active
- Cmax [8]: 440 ng/mL
- Activity [9]: Active
- Activity [10]: Active
- Activity [11]: inactive
- inhibition [12]: Active
- half-life [13]: 29.2 min
- DC50 [14]: 47.4 nM
- IC50 [15]: < 100 nM
- Activity [16]: inactive
- Activity [17]: Active
- Activity [18]: inactive
- Cmax [19]: 2920 ng/mL
- Activity [20]: Active
- Activity [21]: Active
- Activity [22]: Active
- Activity [23]: Active
- Activity [24]: Active
- Activity [25]: Non-Toxic
- Activity [26]: inactive
- inhibition [27]: Active
